Data taken from US20260337583A1, “CYTOCHROME P450 ENZYME, NUCLEIC ACID MOLECULE, AND GLYCYRRHETINIC ACID DERIVATIVE AND USE THEREOF” (CHINA PHARMACEUTICAL UNIVERSITY, priority 2023, published 2026).
Where two headings read alike, the source gives them in different places.

Legend:
[1] = test system: Human hepatocellular carcinoma cells (HepG2); assay: CCK-8 tumor cell growth inhibition, HepG2; format: cell-based; conditions: for IC50: Homo sapiens, HepG2, 48 h co-incubation, CCK-8, read-out: IC50 against HepG2
Procedure: (§1) Human hepatocellular carcinoma cells (HepG2) and human colon cancer cells (SW480) were cultured in a complete culture medium consisting of high-glucose DMEM supplemented with 10% (v/v) heat-inactivated fetal bovine serum, 100 U/mL of penicillin, and […] of streptomycin. All cells used in the experiments were cultured in an incubator at 37° C. with 5% CO2 saturated humidity.
(§2) All compounds were dissolved in DMSO to prepare 20 mM compound stock solutions. • 10 μL of the compound stock solution was added to 1 mL of the complete culture medium to prepare a 200 μM compound solution; • 4 μL of the compound stock solution was added to 1 mL of the complete culture medium to prepare a 80 μM compound solution; • 0.5 mL of the 80 μM compound solution was added to 0.5 mL of the complete culture medium to prepare a 40 μM compound solution; • 0.5 mL of the 40 μM compound solution was added to 0.5 mL of the complete culture medium to prepare a 20 μM compound solution; • 0.5 mL of the 20 μM compound solution was added to 0.5 mL of the complete culture medium to prepare a 10 μM compound solution; • 0.5 mL of the 10 μM compound solution was added to 0.5 mL of the complete culture medium to prepare a 5 μM compound solution;
(§3) The inhibitory effects of the compounds on tumor cell growth were evaluated using a CCK-8 assay. A cell suspension at a predetermined density (5× 10^4/mL cells/mL) was seeded into a 96-well plate. Outermost 36 wells of the 96-well plate were filled with 200 μL of PBS buffer (0.01 M, pH 7.4), while inner 60 wells thereof were used as a drug group, a blank group, and a negative control group. Each group was tested in triplicate.
(§4) Drug group: 100 μL of the cell suspension was added to each well and incubated for 24 h, and 100 μL of the 80 μM compound solution (100 μL of the 200 μM solution was added to Compound 1) was added for co-incubating for another 48 h; 20 μL of CCK-8 solution was added to each well, followed by incubation for another 2 h; and absorbance at 450 nm was measured with a microplate reader.
(§5) Blank group: 100 μL of the complete culture medium was added to each well and incubated for 24 h, and 100 μL of the complete culture medium was then added for co-incubating for another 48 h; 20 μL of CCK-8 solution was added to each well, followed by incubation for another 2 h; and absorbance at 450 nm was measured with a microplate reader.
(§6) Negative control group: 100 μL of the cell suspension was added to each well and incubated for 24 h, and 100 μL of the complete culture medium containing 0.4 μL of DMSO was then added for co-incubating for another 48 h; 20 μL of CCK-8 solution was added to each well, followed by incubation for another 2 h; and absorbance at 450 nm was measured with a microplate reader.
(§7) The cell growth inhibitory ratio (IR) was calculated according to the following formulas:
(§8) [formula] • IR: Inhibitory Ratio • ODpositive: absorbance of the drug group • ODblank: absorbance of the blank group • ODnegative: absorbance of the negative control group
(§9) Each concentration was tested in triplicate. Based on the tumor cell inhibitory ratios at different concentrations, the IC50 was calculated using GraphPad Prism 9.

[2] = test system: human colon cancer cells (SW480); assay: CCK-8 tumor cell growth inhibition, SW480; format: cell-based; conditions: for IC50: Homo sapiens, SW480, 48 h co-incubation, CCK-8, read-out: IC50 against SW480; for activity against human colon cancer cells compared with the parent compound 1 (glycyrrhetinic acid): relative to parent compound 1
Procedure: as §1, §2, §3, §4, §5, §6, §7, §8, §9

CYP161H12 [3] = molecular target: T1, CYP161H12 (Amycolatopsis pretoriensis, UniProt A0A1H5RFX8); assay: CYP161H12 catalytic activity on different substrates (cell-free CYP161H12-RHFRed/opt13 conversion, liquid chromatography); conditions: role: substrate; 2 mM substrate, 0.5 equiv. NADP+, 50 equiv. Na2HPO3·5H2O, 5% DMSO, pH 7.0, 23° C., 20 h; enzyme 3.68×10^−3 mM
T1 sequence (A0A1H5RFX8 1-404): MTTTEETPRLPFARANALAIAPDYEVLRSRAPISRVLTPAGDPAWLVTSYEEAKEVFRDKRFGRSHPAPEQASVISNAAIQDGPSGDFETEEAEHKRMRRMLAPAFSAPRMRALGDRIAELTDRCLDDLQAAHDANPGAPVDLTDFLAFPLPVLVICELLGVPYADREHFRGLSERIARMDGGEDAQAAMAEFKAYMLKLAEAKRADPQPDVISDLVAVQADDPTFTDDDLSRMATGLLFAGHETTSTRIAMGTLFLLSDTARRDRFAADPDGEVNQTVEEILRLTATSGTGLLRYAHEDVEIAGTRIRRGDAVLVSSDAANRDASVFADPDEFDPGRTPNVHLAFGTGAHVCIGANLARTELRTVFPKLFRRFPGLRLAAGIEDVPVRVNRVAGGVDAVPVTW

CYP161H12 [4] = molecular target: T1, CYP161H12

SMILES | IC50 [1] [µM] | IC50 [2] [µM] | other results
CC1(C)[C@@H](O)CC[C@]2(C)[C@H]3C(=O)C=C4[C@@H]5C[C@@](C)(C(=O)O)CC[C@]5(C)CC[C@@]4(C)[C@]3(C)CC[C@@H]12 [Compound 1, glycyrrhetinic acid] | > 100 | > 100 | yield of Substrate catalyzed by CYP161H12 (CYP161H12 [3]): 100%
CC1(C)[C@@H](O)CC[C@]2(C)[C@H]3C(=O)C=C4[C@@H]5C[C@@](C)(C(=O)O)CC[C@]5(C)CC[C@@]4(C)[C@]3(C)[C@@H](O)C[C@@H]12 [Compound 1a] | > 40 | > 40 | 
CC1(C)[C@@H](O)CC[C@]2(C)[C@H]3C(=O)C=C4[C@@H]5C[C@@](C)(C(=O)O)CC[C@]5(C)C[C@H](O)[C@@]4(C)[C@]3(C)[C@@H](O)C[C@@H]12 [Compound 1b] | > 40 | > 40 | 
CC(=O)O[C@H]1CC[C@]2(C)[C@H]3C(=O)C=C4[C@@H]5C[C@@](C)(C(=O)O)CC[C@]5(C)CC[C@@]4(C)[C@]3(C)[C@@H](O)C[C@H]2C1(C)C [Compound 2a] | > 40 | > 40 | 
CC(=O)O[C@H]1CC[C@]2(C)[C@H]3C(=O)C=C4[C@@H]5C[C@@](C)(C(=O)O)CC[C@]5(C)C[C@H](O)[C@@]4(C)[C@]3(C)[C@@H](O)C[C@H]2C1(C)C [Compound 2b] | > 40 | > 40 | 
CCC(=O)O[C@H]1CC[C@]2(C)[C@H]3C(=O)C=C4[C@@H]5C[C@@](C)(C(=O)O)CC[C@]5(C)CC[C@@]4(C)[C@]3(C)[C@@H](O)C[C@H]2C1(C)C [Compound 3a] | > 40 | > 40 | 
CCCC(=O)O[C@H]1CC[C@]2(C)[C@H]3C(=O)C=C4[C@@H]5C[C@@](C)(C(=O)O)CC[C@]5(C)CC[C@@]4(C)[C@]3(C)[C@@H](O)C[C@H]2C1(C)C [Compound 4a] | > 40 | > 40 | 
CC1(C)C(=O)CC[C@]2(C)[C@H]3C(=O)C=C4[C@@H]5C[C@@](C)(C(=O)O)CC[C@]5(C)CC[C@@]4(C)[C@]3(C)[C@@H](O)C[C@@H]12 [Compound 5a] | > 40 | > 40 | 
CC1(C)C(=O)CC[C@]2(C)[C@H]3C(=O)C=C4[C@@H]5C[C@@](C)(C(=O)O)CC[C@]5(C)C[C@H](O)[C@@]4(C)[C@]3(C)[C@@H](O)C[C@@H]12 [Compound 5b] | > 40 | > 40 | 
CC1(C)C(=O)C=C[C@]2(C)[C@H]3C(=O)C=C4[C@@H]5C[C@@](C)(C(=O)O)CC[C@]5(C)CC[C@@]4(C)[C@]3(C)[C@@H](O)C[C@@H]12 [Compound 6a] | > 40 | > 40 | 
CC1(C)C(=O)C=C[C@]2(C)[C@H]3C(=O)C=C4[C@@H]5C[C@@](C)(C(=O)O)CC[C@]5(C)C[C@H](O)[C@@]4(C)[C@]3(C)[C@@H](O)C[C@@H]12 [Compound 6b] | > 40 | > 40 | 
CC1(C)OC(=O)CC[C@]2(C)[C@H]3C(=O)C=C4[C@@H]5C[C@@](C)(C(=O)O)CC[C@]5(C)CC[C@@]4(C)[C@]3(C)[C@@H](O)C[C@@H]12 [Compound 7a] | > 40 | > 40 | 
CC1(C)OC(=O)CC[C@]2(C)[C@H]3C(=O)C=C4[C@@H]5C[C@@](C)(C(=O)O)CC[C@]5(C)C[C@H](O)[C@@]4(C)[C@]3(C)[C@@H](O)C[C@@H]12 [Compound 7b] | > 40 | > 40 | 
CC1(C)c2oncc2C[C@]2(C)[C@H]3C(=O)C=C4[C@@H]5C[C@@](C)(C(=O)O)CC[C@]5(C)CC[C@@]4(C)[C@]3(C)[C@@H](O)C[C@@H]12 [Compound 8a] | > 40 | > 40 | 
CC1(C)c2oncc2C[C@]2(C)[C@H]3C(=O)C=C4[C@@H]5C[C@@](C)(C(=O)O)CC[C@]5(C)C[C@H](O)[C@@]4(C)[C@]3(C)[C@@H](O)C[C@@H]12 [Compound 8b] | > 40 | > 40 | 
COC(=O)[C@@]1(C)CC[C@]2(C)CCC3(C)C(=CC(=O)[C@@H]4[C@@]5(C)CC[C@H](O)C(C)(C)[C@@H]5C[C@H](O)[C@]43C)[C@@H]2C1 (some centres unmarked) [Compound 9a] | > 40 | > 40 | 
COC(=O)[C@@]1(C)CC[C@]2(C)C[C@H](O)[C@]3(C)C(=CC(=O)[C@@H]4[C@@]5(C)CC[C@H](O)C(C)(C)[C@@H]5C[C@H](O)[C@]43C)[C@@H]2C1 [Compound 9b] | > 40 | > 40 | 
C=CCCCCOC(=O)[C@@]1(C)CC[C@]2(C)CC[C@]3(C)C(=CC(=O)[C@@H]4[C@@]5(C)CC[C@H](O)C(C)(C)[C@@H]5C[C@H](O)[C@]43C)[C@@H]2C1 [Compound 10a] | > 40 | 39.2 ± 2.34 | activity against human colon cancer cells compared with the parent compound 1 (glycyrrhetinic acid) [2]: more than twice the activity
C=CCCCCOC(=O)[C@@]1(C)CC[C@]2(C)C[C@H](O)[C@]3(C)C(=CC(=O)[C@@H]4[C@@]5(C)CC[C@H](O)C(C)(C)[C@@H]5C[C@H](O)[C@]43C)[C@@H]2C1 [Compound 10b] | 38.6 ± 0.54 | 32 ± 3.36 | activity against human liver cancer cells compared with the parent compound 1 (glycyrrhetinic acid) ([1]; relative to parent compound 1): more than twice the activity; activity against human colon cancer cells compared with the parent compound 1 (glycyrrhetinic acid) [2]: more than twice the activity
CC(=O)O[C@H]1CC[C@]2(C)[C@H]3C(=O)C=C4[C@@H]5C[C@@](C)(C(=O)O)CC[C@]5(C)CC[C@@]4(C)[C@]3(C)CC[C@H]2C1(C)C [Substrate 2, 3-acetyl-glycyrrhetinic acid] |  |  | yield of Substrate catalyzed by CYP161H12 (CYP161H12 [3]): 92%
CCC(=O)O[C@H]1CC[C@]2(C)[C@H]3C(=O)C=C4[C@@H]5C[C@@](C)(C(=O)O)CC[C@]5(C)CC[C@@]4(C)[C@]3(C)CC[C@H]2C1(C)C [Substrate 3, 3-propionyl-glycyrrhetinic acid] |  |  | yield of Substrate catalyzed by CYP161H12 (CYP161H12 [3]): 61%
CCCC(=O)O[C@H]1CC[C@]2(C)[C@H]3C(=O)C=C4[C@@H]5C[C@@](C)(C(=O)O)CC[C@]5(C)CC[C@@]4(C)[C@]3(C)CC[C@H]2C1(C)C [Substrate 4, 3-butyryl-glycyrrhetinic acid] |  |  | yield of Substrate catalyzed by CYP161H12 (CYP161H12 [3]): 23%
CC1(C)C(=O)CC[C@]2(C)[C@H]3C(=O)C=C4[C@@H]5C[C@@](C)(C(=O)O)CC[C@]5(C)CC[C@@]4(C)[C@]3(C)CC[C@@H]12 [Substrate 5, 3-oxo-glycyrrhetinic acid] |  |  | ratio of hydroxylated products a:b (CYP161H12 [4]): 76:24; yield of Substrate catalyzed by CYP161H12 (CYP161H12 [4]; pH 7): 87%
CC1(C)C(=O)C=C[C@]2(C)[C@H]3C(=O)C=C4[C@@H]5C[C@@](C)(C(=O)O)CC[C@]5(C)CC[C@@]4(C)[C@]3(C)CC[C@@H]12 [Substrate 6, 3-oxo-1-ene-glycyrrhetinic acid] |  |  | yield of Substrate catalyzed by CYP161H12 (CYP161H12 [3]): 81%
CC1(C)OC(=O)CC[C@]2(C)[C@H]3C(=O)C=C4[C@@H]5C[C@@](C)(C(=O)O)CC[C@]5(C)CC[C@@]4(C)[C@]3(C)CC[C@@H]12 [Substrate 7] |  |  | yield of Substrate catalyzed by CYP161H12 (CYP161H12 [3]): 87%
CC1(C)c2oncc2C[C@]2(C)[C@H]3C(=O)C=C4[C@H]5C[C@@](C)(C(=O)O)CC[C@]5(C)CC[C@@]4(C)[C@]3(C)CC[C@@H]12 [Substrate 8] |  |  | yield of Substrate catalyzed by CYP161H12 (CYP161H12 [3]): 97%
